Assay results as given in article PMC10096175, “An In Vitro Antimicrobial, Anticancer and Antioxidant Activity of N–[(2–Arylmethylthio)phenylsulfonyl]cinnamamide Derivatives” (Molecules, 2023).
≈ marks a conversion by molar mass, not a printed value. Like-named read-outs stand apart in the source and are kept apart here.

What was measured:
S. aureus ATCC 6538 = assay: MIC determination, reference strain (microdilution); type: cell-based; settings: Staphylococcus aureus, ATCC6538; S. aureus ATCC 6538; ± SD; Co-trimoxazole as sulfamethoxazole/trimethoprim; read-out: MIC
HEK-293 cells = assay: MTT assay, noncancerous cells; type: cell-based; settings: Homo sapiens, HEK293; HEK-293; MTT, 24 h treatment; read-out: IC50
B. subtilis ATCC 6633 = assay: MIC determination, reference strain (microdilution); type: cell-based; settings: Bacillus subtilis, ATCC6633; B. subtilis ATCC 6633; Co-trimoxazole as sulfamethoxazole/trimethoprim; read-out: MIC
C. albicans ATCC 10231 = assay: MIC determination, reference fungal strain (microdilution); type: cell-based; settings: Candida albicans, ATCC10231; C. albicans ATCC 10231; read-out: MIC
HeLa cells = assay: MTT assay; type: cell-based, human; settings: for IC50: HeLa, MTT, 24 h treatment; for Selectivity index (SI): IC50 HEK-293 / IC50 HeLa
E. hirae ATCC 10541 = assay: MIC determination, reference strain (microdilution); type: cell-based; settings: Enterococcus hirae, ATCC10541; E. hirae ATCC 10541; Co-trimoxazole as sulfamethoxazole/trimethoprim; read-out: MIC
[1] = test system: clinical strains of Enterococcus sp.; assay: MIC on clinical Enterococcus strains; type: cell-based
DPPH assay = settings: DPPH radical scavenging; 40 min, room temperature
Protocol: The DPPH assay was performed spectrophotometrically. The amount of 30 µL of different concentrations of samples, dissolved in methanol/DMSO (9/1 v/v), was mixed with 170 µL of 0.06 mM DPPH methanolic solution and completed with methanol to a final volume of 300 µL. DPPH methanolic solution with methanol/DMSO (9/1 v/v) was used as a control. After 40 min of incubation at room temperature in the dark, the absorbance was analyzed at λ = 510 nm by a 96-well microplate reader (Epoch, BioTek System, Santa Clara, CA, USA). Ascorbic acid was used as a standard.
DPPH inhibition was calculated by the following equation:DPPH Inhibition (%) = [Acontrol − Asample)/Acontrol] × 100%
(§1) IC50 values of the samples were calculated using program GraFit v. 7.0 (Erithacus Software). The analysis was performed three times, with tree replications in each (n = 9). Statistical analysis was performed with one-way ANOVA with Tuckey’s post-hoc test.

E. coli ATCC 8739 = assay: MIC determination, reference strain (microdilution); type: cell-based; settings: Escherichia coli, ATCC8739; E. coli ATCC 8739; Co-trimoxazole as sulfamethoxazole/trimethoprim; read-out: MIC
[2] = test system: cancer cells (HeLa, SKOV-3, MCF-7); assay: MTT assay, summary statements on the cancer cells; type: cell-based; settings: Homo sapiens, cell line not specified
E. faecalis ATCC 51299 = assay: MIC determination, reference strain (microdilution); type: cell-based; settings: Enterococcus faecalis, ATCC51299; E. faecalis ATCC 51299; Co-trimoxazole as sulfamethoxazole/trimethoprim; read-out: MIC
ABTS assay = settings: ABTS radical scavenging; 10 min, 30 °C
Protocol: The ABTS assay was performed spectrophotometrically. […] ABTS solution with methanol/DMSO (9/1 v/v) was used as a control. After 10 min of incubation at 30 °C in the dark, the absorbance was analyzed at λ = 750 nm by a 96-well microplate reader (Epoch, BioTek System, Santa Clara, CA, USA). Ascorbic acid was used as a standard.
ABTS inhibition was calculated by the following equation:ABTS Inhibition (%) = [Acontrol − Asample)/Acontrol] × 100%
as §1

in vitro = settings: sheep, defibrinated sheep blood diluted 1:9 v/v with PBS, pH 7
[3] = test system: S. epidermidis ATCC 14990; assay: MIC determination, reference strain (microdilution); type: cell-based; settings: Staphylococcus epidermidis, ATCC14990; S. epidermidis ATCC 14990; Co-trimoxazole as sulfamethoxazole/trimethoprim; read-out: MIC
MCF-7 cells = assay: MTT assay; type: cell-based, human; settings: for IC50: Homo sapiens, MCF7, MCF-7, MTT, 24 h treatment, read-out: IC50; for Selectivity index (SI): IC50 HEK-293 / IC50 MCF-7
SKOV-3 cells = assay: MTT assay; type: cell-based, human; settings: for IC50: Homo sapiens, SK-OV-3, SKOV-3, MTT, 24 h treatment, read-out: IC50; for Selectivity index (SI): IC50 HEK-293 / IC50 SKOV-3
C. diphtheriae = assay: MIC determination, reference strain (microdilution); type: cell-based; settings: Corynebacterium diphtheriae; C. diphtheriae; Co-trimoxazole as sulfamethoxazole/trimethoprim; read-out: MIC
[4] = test system: Staphylococcus sp. and Enterococcus sp.; assay: MIC, summary statements on reference Gram-positive cocci; type: cell-based; settings: Staphylococcus and Enterococcus species, reference Gram-positive cocci (range over strains)
Protocol: Sterile sheep blood defibrinated (GrasoBiotech). Co-trimoxazole (composition sulfamethoxazole 400 mg/trimethoprim 80 mg; WZF Polfa Poland). Ketoconazole (WZF Polfa Poland). Bacteria: Enterococcus hirae ATCC 10541 and Enterococcus faecalis ATCC 51299, Staphylococcus epidermidis ATCC 14990, Staphylococcus aureus ATCC 6538, clinical strains Staphylococcus aureus MRSA, clinical strains Staphylococcus sp. (MRCNS), clinical strain Staphylococcus epidermidis MRSE, clinical strain Enterococcus sp., Corynebacterium diphtheriae ZMF, Bacillus subtilis ATCC 6633, Escherichia coli ATCC 8739, Candida albicans ATCC 10231. Brain-heart infusion broth (BHI, Becton Dickinson) for Enterococcus hirae ATCC 10541 and Enterococcus faecalis ATCC 51299, BHI supplement with 10% bovine serum for Bacillus subtilis, Corynebacterium diphtheriae ZMF, Staphylococcus epidermidis ATCC 14990, Staphylococcus aureus ATCC 6538, clinical strains Staphylococcus aureus MRSA, clinical strains Staphylococcus sp. (CNS), clinical strain Staphylococcus epidermidis MRSE grew in Mueller-Hinton broth (MH cation-adjusted, Becton Dickinson) in an aerobic atmosphere at 37 °C for 48 h, in an aerobic atmosphere at 37 °C for 72 h. Candida albicans grew in Sabourauda broth (Sb, Becton Dickinson), in an aerobic atmosphere at 37 °C for 72 h. After determination of the bacterial viability, BHI blood agar plates, MH agar plates, and Sb agar plates were used.
The MIC determination for the reference and clinical strains was performed based on the methodology described by Kula et al.. The dry test samples were dissolved in dimethyl sulfoxide (DMSO) and diluted in water, resulting in a finale concentration of about 500 µg/mL. These solutions were diluted and added to the first well of each microtiter line. Dilution in geometric progression was done by transferring the mixture/dilution (100 μL) from the first to the twelfth well. An aliquot (100 μL) was discarded from the twelfth well. The final concentration of the samples used in the antimicrobial activity assay ranged from 125 to 0.006 µg/mL. Co-trimoxazole (for bacteria), with the composition sulfamethoxazole 400 mg/trimethoprim 80 mg was used as a reference compound in the concentration range of 20 000/4000 to 1/0.2 µg/mL. Ketoconazole (for fungi) was used as a reference compound in the concentration range of 125 to 0.006 µg/mL. Tests were incubated in adequate conditions described by Kula et al.. Diluent concentration had no effect on the activity of the tested compounds. All experiments were carried out three times.

[5] = test system: clinical methicillin-resistant S. aureus (MRSA) strains; assay: MIC on clinical MRSA strains; type: cell-based; settings: Staphylococcus aureus, MRSA / VISA; strains MRSA12673, MRSA21804, MRSA18532, MRSA12647 and MRSAN315 VISA
Description: In the next step, we evaluated the compounds on clinical methicillin-resistant S. aureus (MRSA) strains (Figure 2) and methicillin-resistant coagulase-negative Staphylococcus (MRCNS) (Figure 3). The group of CNS includes nonpathogenic or opportunistic pathogens, while coagulase-positive staphylococci are represented by S. aureus. About 30% of the human population carries S. aureus in the upper respiratory tract. Infections caused by S. aureus include all purulent skin conditions (boils, abscesses, folliculitis) and nosocomial infections. The strains isolated from hospitals are usually antibiotic-resistant, where MRSA strains are the majority. Staphylococcus epidermidis (like other coagulase-negative Staphylococcus) is included in the microflora of human skin and can easily cause surface contamination after surgical procedures.
Sterile sheep blood defibrinated (GrasoBiotech). Co-trimoxazole (composition sulfamethoxazole 400 mg/trimethoprim 80 mg; WZF Polfa Poland). Ketoconazole (WZF Polfa Poland). Bacteria: Enterococcus hirae ATCC 10541 and Enterococcus faecalis ATCC 51299, Staphylococcus epidermidis ATCC 14990, Staphylococcus aureus ATCC 6538, clinical strains Staphylococcus aureus MRSA, clinical strains Staphylococcus sp. […]

[6] = Homo sapiens, 24 h, read-out: IC50
[7] = Enterococcus sp. 3937152, read-out: MIC

Row | MIC (S. aureus ATCC 6538) [µg/mL] | MIC (B. subtilis ATCC 6633) [µg/mL] | MIC (C. albicans ATCC 10231) [µg/mL] | IC50 (HeLa cells; [6]) [µg/mL] | MIC (E. hirae ATCC 10541) [µg/mL] | MIC [1, 7] [µg/mL] | IC50 DPPH (DPPH assay) [µg/mL] | MIC (E. coli ATCC 8739) [µg/mL] | IC50 ([2]; MTT) [µg/mL] | IC50 ([2]; µg/mL bound converted) [µM] | MIC (E. faecalis ATCC 51299) [µg/mL] | IC50 ABTS (ABTS assay) [µg/mL] | MIC [3] [µg/mL] | IC50 (MCF-7 cells) [µg/mL] | IC50 (SKOV-3 cells) [µg/mL] | MIC (C. diphtheriae) [µg/mL] | SMILES | IC50 (HEK-293 cells) [µg/mL] | Selectivity index (SI) (HeLa cells) | Selectivity index (SI) (MCF-7 cells) | Selectivity index (SI) (SKOV-3 cells) | also measured
1 | 4 ± 0.16 (≈ 6.88 µM) | 125 ± 0.29 (≈ 215 µM) | > 125 | < 10 | 8 ± 0.15 (≈ 13.8 µM) | > 125 | 574.41 ± 1.34 (≈ 988 µM) | > 125 | < 10 | ≤ 20 | 8 ± 0.15 (≈ 13.8 µM) | 419.18 ± 2.72 (≈ 721 µM) | 2 ± 0.76 (≈ 3.44 µM) | 16.3 ± 0.27 (≈ 28.1 µM) | 15.3 ± 0.16 (≈ 26.4 µM) | 62.5 ± 0.29 (≈ 107 µM) | Cc1cc(S(=O)(=O)NC(=O)/C=C/c2ccc([N+](=O)[O-])cc2)c(SCc2cc3c(cc2Cl)OCO3)cc1Cl [Compound 17d, (E)–N–{4–Chloro–2–[(6–chlorobenzo[d][1,3]dioxol–5–yl)methylthio]–5–methylphenylsulfonyl}–3–(4–nitrophenyl)acrylamide] | 15.4 ± 0.69 (≈ 26.4 µM) | 1.5 | 0.9 | 1.0 | IC50 (HeLa cells): 9.99 ± 0.08 µg/mL (≈ 17.2 µM); hemolysis at 24 h, 31.25 µg/mL (in vitro): 12 to 20%
2 | 1 ± 0.29 (≈ 1.9 µM) | 62.5 ± 0.29 (≈ 119 µM) | > 125 | 11.2 ± 0.2 (≈ 21.3 µM) | 2 ± 0.58 (≈ 3.8 µM) | – | 620.47 ± 0.67 (≈ 1180 µM) | > 125 | < 10 | ≤ 20 | 2 ± 0.58 (≈ 3.8 µM) | 622.23 ± 2.25 (≈ 1180 µM) | 2 ± 0.58 (≈ 3.8 µM) | 11.2 ± 0.08 (≈ 21.3 µM) | 9.28 ± 1.02 (≈ 17.6 µM) | > 125 | Cc1cc(S(=O)(=O)NC(=O)/C=C/c2ccc(F)cc2)c(SCc2cccc3ccccc23)cc1Cl [Compound 16c, (E)–N–{4–Chloro–5–methyl–2–[(naphthalen–1–yl)methylthio]phenylsulfonyl}–3–(4–fluorophenyl)acrylamide] | 7.67 ± 0.21 (≈ 14.6 µM) | 0.7 | 0.7 | 0.8 | MIC [4]: 1 to 2 µg/mL (≈ 1.9 to 3.8 µM)
3 | 2 ± 0.29 (≈ 3.61 µM) | 62.5 ± 0.29 (≈ 113 µM) | > 125 | 12 ± 0.44 (≈ 21.6 µM) | 4 ± 0.15 (≈ 7.21 µM) | > 125 | 652.93 ± 2.39 (≈ 1180 µM) | > 125 | – | – | 4 ± 0.15 (≈ 7.21 µM) | 620.39 ± 1.29 (≈ 1120 µM) | 2 ± 0.58 (≈ 3.61 µM) | 14.8 ± 0.66 (≈ 26.7 µM) | 11 ± 0.5 (≈ 19.8 µM) | > 125 | Cc1cc(S(=O)(=O)NC(=O)/C=C/c2ccc(F)cc2)c(SCc2cc3c(cc2Cl)OCO3)cc1Cl [Compound 17b, (E)–N–{4–Chloro–2–[(6–chlorobenzo[d][1,3]dioxol–5–yl)methylthio]–5–methylphenylsulfonyl}–3–(4–fluorophenyl)acrylamide] | 7.17 ± 0.44 (≈ 12.9 µM) | 0.6 | 0.5 | 0.6 | MIC [5]: > 125 µg/mL; MIC ([1]; Enteroccoccus sp. 3934825): > 125 µg/mL; MIC ([1]; Enterococcus sp. 12848): > 125 µg/mL; hemolysis at 24 h, 62.5 µg/mL (in vitro): 9%
